Laboratory results reported in patent US20090068295A1, “Composition for treating cancer and method of using the same” (Chang Gung University, priority 2007, published 2009).

Columns and labels:
P53 protein [1] = experiment: P53 protein expression of Hep-G2; format: cell-based, human; details: Hep-G2 cells, compared with control; concentrations not given
Description: (§1) Referring to FIG. 5A and FIG. 5B.
However, treat Hep-G2 with EGCG can reduce the expression of P53 protein to 0.74-fold.

[2] = system: human leukemia cell line Jurkat T; experiment: viability of human leukemia cell line Jurkat T; format: cell-based; details: 5-FU alone
Description: (§2) Please refer to FIG. 6A and FIG. 6B.

[3] = system: human liver cancer cell line Hep-G2; experiment: effect on the cell cycle of Hep-G2; format: cell-based
Protocol: (§3) Please refer to FIG. 4A and FIG. 4B. […] Please further refer to the following Table 1 and Table 2.
Furthermore, as shown in FIG. 4B and Table 2, in the cell cycle of Hep-G2, the percentage of G1, S, and G2 phases are about 52.7%, 26.54%, and 20.76% respectively. When treat the Hep-G2 cells with 10 μM of 5-FU alone, the percentage of G1, S, and G2 phases are about 47.04%, 42.68%, and 10.29% respectively. From the comparison with the control, 5-FU can increase the percentage of S phase and reduce the percentage of G1 phase and G2 phase. […] From the results, 5-FU combined with EGCG can effectively interrupt the cell cycle of Hep-G2 cells at G1 phase, and prevent the cell cycle from entering S phase and G2 phase.

[4] = system: human leukemia cell line K562; experiment: viability of human leukemia cell line K562; format: cell-based; details: 5-FU alone
Description: as §2

[5] = system: human liver cancer cell line Sk-Hep-1; experiment: viability of human liver cancer cell line Sk-Hep-1 after treatment; details: for viability of Sk-Hep-1: after 48 hours
P53 protein [6] = experiment: P53 protein expression of Sk-Hep-1; format: cell-based, human; details: Sk-Hep-1 cells, compared with control; concentrations not given
Description: as §1

[7] = system: human liver cancer cell line Sk-Hep-1; experiment: effect on the cell cycle of Sk-Hep-1; format: cell-based
Protocol: as §3
As shown in FIG. 4A and Table 1, in the cell cycle of Sk-Hep-1, the percentage of G1, S, and G2 phases are about 43.04%, 30.9%, and 23.75% respectively. When treat the Sk-Hep-1 cells with 10 μM of 5-FU alone, the percentage of G1, S, and G2 phases are about 51.51%, 31.19%, and 17.3% respectively. From the comparison with the control, 5-FU can increase the percentage of G1 phase and reduce the percentage of G2 phase. […] From the results, 5-FU combined with EGCG can effectively interrupt the cell cycle of Sk-Hep-1 cells at G1 phase, and prevent the cell cycle from entering S phase.

O=c1[nH]cc(F)c(=O)[nH]1 [5-FU, 5-Fluorouracil]
expression of P53 protein (P53 protein [1]): 1.64 fold | viability of Jurkat T [2]: about 80% | Cell cycle phase G2 (%) ([3]; 5-FU, 10 μM): 10.29 ± 2.5% | Cell cycle phase S (%) ([3]; 5-FU, 10 μM): 42.68 ± 2.4% | effect on the viability of K562 [4]: almost no effect | viability at 10 µM ([5]; Homo sapiens, SK-HEP1, 48 h, read-out: viability of Sk-Hep-1): ~75% | expression of P53 protein (P53 protein [6]): 1.64 fold | Cell cycle phase G2 (%) ([7]; 5-FU, 10 μM): 17.30 ± 0.3% | Cell cycle phase S (%) ([7]; 5-FU, 10 μM): 31.19 ± 1.4%

O=C(O[C@@H]1Cc2c(O)cc(O)cc2O[C@@H]1c1cc(O)c(O)c(O)c1)c1cc(O)c(O)c(O)c1 [EGCG, Epigallocatechin gallate]
expression of P53 protein (P53 protein [1]): 0.74 fold | Cell cycle phase G1 (%) ([3]; EGCG, 50 μM): 62.15 ± 2.4% | Cell cycle phase G2 (%) ([3]; EGCG, 50 μM): 9.33 ± 4.7% | Cell cycle phase S (%) ([3]; EGCG, 50 μM): 28.52 ± 4.3% | Cell cycle phase G1 (%) ([3]; EGCG, 100 μM): 62.23 ± 5.7% | Cell cycle phase G2 (%) ([3]; EGCG, 100 μM): 11.51 ± 4.1% | Cell cycle phase S (%) ([3]; EGCG, 100 μM): 26.26 ± 3.5% | Cell cycle phase G1 (%) ([3]; EGCG, 250 μM): 61.83 ± 1.6% | Cell cycle phase G2 (%) ([3]; EGCG, 250 μM): 9.63 ± 1.7% | Cell cycle phase S (%) ([3]; EGCG, 250 μM): 28.53 ± 1.3% | viability of Sk-Hep-1 ([5]; 50 μM of EGCG): about 90% | viability of Sk-Hep-1 ([5]; 100 μM of EGCG): ~80% | viability of Sk-Hep-1 ([5]; 250 μM of EGCG): ~60% | viability of Sk-Hep-1 ([5]; 500 μM of EGCG): ~50% | expression of P53 protein (P53 protein [6]): 1.8 fold | Cell cycle phase G1 (%) ([7]; EGCG, 50 μM): 54.41 ± 5.4% | Cell cycle phase G2 (%) ([7]; EGCG, 50 μM): 22.09 ± 2.2% | Cell cycle phase S (%) ([7]; EGCG, 50 μM): 23.51 ± 3.2% | Cell cycle phase G1 (%) ([7]; EGCG, 100 μM): 56.60 ± 3.8% | Cell cycle phase G2 (%) ([7]; EGCG, 100 μM): 19.5 ± 0.7% | Cell cycle phase S (%) ([7]; EGCG, 100 μM): 23.90 ± 3.1% | Cell cycle phase G1 (%) ([7]; EGCG, 250 μM): 53.92 ± 1.9% | Cell cycle phase G2 (%) ([7]; EGCG, 250 μM): 17.55 ± 1.7% | Cell cycle phase S (%) ([7]; EGCG, 250 μM): 28.53 ± 2.3%
